In BindingDB's records for PubMed 7520908 (Janssen Research Foundation, 1994):
Several values for one entry are separate records, joined by “and”; a condition that tells them apart may be missing. Equal entries are not always repeated.

Legend:
[1] = molecular target: 5-hydroxytryptamine receptor 1B (Rattus norvegicus, UniProt P28564)
[2] = molecular target: 5-hydroxytryptamine receptor 2A (Rattus norvegicus, UniProt P14842)
[3] = molecular target: 5-hydroxytryptamine receptor 1B (Homo sapiens, UniProt P28222)
[4] = molecular target: D(2) dopamine receptor (Rattus norvegicus, UniProt P61169)
[5] = molecular target: T1, 5-hydroxytryptamine receptor 3A (Mus musculus, UniProt P23979)
T1 sequence (P23979 whole entry): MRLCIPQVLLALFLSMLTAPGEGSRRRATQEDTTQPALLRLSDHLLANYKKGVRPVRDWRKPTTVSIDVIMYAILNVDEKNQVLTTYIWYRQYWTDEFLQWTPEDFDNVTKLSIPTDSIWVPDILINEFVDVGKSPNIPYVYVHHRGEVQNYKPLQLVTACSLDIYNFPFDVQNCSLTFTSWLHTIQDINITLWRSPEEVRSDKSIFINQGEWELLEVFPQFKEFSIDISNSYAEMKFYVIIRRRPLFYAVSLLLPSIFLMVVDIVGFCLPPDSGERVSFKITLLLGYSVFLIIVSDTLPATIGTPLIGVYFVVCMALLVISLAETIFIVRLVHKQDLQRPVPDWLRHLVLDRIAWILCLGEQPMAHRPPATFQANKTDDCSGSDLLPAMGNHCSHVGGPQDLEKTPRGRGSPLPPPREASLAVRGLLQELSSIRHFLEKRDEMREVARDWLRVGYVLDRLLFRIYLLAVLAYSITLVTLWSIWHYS

[6] = molecular target: 5-hydroxytryptamine 1D receptor (Bos taurus, UniProt Q8MI13)
[7] = molecular target: D(3) dopamine receptor (Rattus norvegicus, UniProt P19020)
[8] = molecular target: T2, 5-hydroxytryptamine receptor 2C (Sus scrofa, UniProt G7ZKZ7)
T2 sequence (G7ZKZ7 whole entry): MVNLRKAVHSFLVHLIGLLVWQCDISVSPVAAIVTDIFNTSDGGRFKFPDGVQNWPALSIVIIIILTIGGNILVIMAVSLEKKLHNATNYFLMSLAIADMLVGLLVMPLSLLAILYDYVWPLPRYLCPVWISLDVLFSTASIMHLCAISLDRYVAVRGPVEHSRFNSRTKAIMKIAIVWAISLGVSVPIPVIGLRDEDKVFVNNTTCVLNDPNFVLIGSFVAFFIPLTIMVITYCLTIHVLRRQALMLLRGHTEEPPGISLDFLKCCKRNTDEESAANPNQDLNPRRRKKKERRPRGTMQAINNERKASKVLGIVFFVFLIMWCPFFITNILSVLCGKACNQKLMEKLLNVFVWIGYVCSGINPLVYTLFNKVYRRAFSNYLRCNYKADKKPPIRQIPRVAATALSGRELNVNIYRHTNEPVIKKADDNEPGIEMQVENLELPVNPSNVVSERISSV

[9] = molecular target: D(1A) dopamine receptor (Rattus norvegicus, UniProt P18901)
Chain of D(1A) dopamine receptor (P18901 whole entry): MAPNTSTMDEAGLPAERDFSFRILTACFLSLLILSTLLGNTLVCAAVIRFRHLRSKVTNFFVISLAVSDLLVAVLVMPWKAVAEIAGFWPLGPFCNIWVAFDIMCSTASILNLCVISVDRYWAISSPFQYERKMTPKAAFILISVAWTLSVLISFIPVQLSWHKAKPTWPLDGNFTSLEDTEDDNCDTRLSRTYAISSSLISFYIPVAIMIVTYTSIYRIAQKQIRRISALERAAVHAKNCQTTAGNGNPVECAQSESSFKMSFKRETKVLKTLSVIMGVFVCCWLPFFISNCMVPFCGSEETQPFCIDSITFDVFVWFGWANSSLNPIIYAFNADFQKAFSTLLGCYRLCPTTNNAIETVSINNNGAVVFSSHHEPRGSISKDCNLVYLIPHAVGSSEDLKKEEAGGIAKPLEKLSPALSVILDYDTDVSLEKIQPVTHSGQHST

Chain of D(2) dopamine receptor (P61169 whole entry): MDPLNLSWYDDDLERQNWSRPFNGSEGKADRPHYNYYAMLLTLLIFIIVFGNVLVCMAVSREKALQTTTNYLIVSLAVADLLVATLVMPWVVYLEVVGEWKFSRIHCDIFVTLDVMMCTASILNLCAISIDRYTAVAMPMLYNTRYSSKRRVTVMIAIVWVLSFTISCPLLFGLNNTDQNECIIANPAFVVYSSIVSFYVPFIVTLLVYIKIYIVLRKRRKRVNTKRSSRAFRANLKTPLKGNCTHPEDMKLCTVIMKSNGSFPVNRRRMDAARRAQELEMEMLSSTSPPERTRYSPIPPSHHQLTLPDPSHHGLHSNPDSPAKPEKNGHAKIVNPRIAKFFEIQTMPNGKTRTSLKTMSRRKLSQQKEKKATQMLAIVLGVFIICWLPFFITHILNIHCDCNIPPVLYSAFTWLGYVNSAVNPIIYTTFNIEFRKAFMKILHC
Chain of 5-hydroxytryptamine receptor 1B (Rattus norvegicus, UniProt P28564) (P28564 whole entry): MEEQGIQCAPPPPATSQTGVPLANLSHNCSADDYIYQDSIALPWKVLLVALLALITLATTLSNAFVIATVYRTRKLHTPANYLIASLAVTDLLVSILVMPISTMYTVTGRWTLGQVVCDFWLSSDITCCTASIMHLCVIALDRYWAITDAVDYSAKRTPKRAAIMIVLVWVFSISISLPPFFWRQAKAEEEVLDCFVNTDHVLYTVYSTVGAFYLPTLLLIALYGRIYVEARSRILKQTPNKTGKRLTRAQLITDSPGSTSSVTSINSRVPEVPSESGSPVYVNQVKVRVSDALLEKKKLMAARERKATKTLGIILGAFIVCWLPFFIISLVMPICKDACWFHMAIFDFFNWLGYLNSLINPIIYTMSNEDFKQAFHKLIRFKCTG
Chain of 5-hydroxytryptamine receptor 2A (P14842 whole entry): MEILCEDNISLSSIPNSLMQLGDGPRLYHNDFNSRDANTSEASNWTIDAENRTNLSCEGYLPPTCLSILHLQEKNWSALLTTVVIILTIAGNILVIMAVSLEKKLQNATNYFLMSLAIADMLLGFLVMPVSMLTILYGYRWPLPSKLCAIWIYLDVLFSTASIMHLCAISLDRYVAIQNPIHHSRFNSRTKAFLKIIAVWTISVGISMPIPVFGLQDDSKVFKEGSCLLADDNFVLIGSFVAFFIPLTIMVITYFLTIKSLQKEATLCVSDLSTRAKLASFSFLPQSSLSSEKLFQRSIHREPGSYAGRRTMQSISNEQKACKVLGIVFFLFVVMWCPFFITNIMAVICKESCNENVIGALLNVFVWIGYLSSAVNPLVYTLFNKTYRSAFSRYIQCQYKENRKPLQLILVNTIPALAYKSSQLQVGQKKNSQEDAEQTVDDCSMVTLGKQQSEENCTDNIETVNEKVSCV
Chain of 5-hydroxytryptamine 1D receptor (Q8MI13 whole entry): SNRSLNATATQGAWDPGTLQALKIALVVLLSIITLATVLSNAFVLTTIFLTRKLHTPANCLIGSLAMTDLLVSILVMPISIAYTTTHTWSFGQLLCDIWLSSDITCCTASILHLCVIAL
Chain of 5-hydroxytryptamine receptor 1B (Homo sapiens, UniProt P28222) (P28222 whole entry): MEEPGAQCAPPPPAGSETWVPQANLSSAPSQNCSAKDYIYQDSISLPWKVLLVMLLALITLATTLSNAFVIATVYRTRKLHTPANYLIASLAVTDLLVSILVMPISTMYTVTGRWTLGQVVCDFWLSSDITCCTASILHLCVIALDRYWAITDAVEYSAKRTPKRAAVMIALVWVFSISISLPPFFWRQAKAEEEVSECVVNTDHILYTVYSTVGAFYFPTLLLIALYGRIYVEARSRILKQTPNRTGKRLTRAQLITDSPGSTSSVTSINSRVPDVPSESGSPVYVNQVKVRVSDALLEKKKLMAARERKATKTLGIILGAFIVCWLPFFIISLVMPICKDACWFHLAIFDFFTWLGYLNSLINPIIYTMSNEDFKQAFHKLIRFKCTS
Chain of D(3) dopamine receptor (P19020 whole entry): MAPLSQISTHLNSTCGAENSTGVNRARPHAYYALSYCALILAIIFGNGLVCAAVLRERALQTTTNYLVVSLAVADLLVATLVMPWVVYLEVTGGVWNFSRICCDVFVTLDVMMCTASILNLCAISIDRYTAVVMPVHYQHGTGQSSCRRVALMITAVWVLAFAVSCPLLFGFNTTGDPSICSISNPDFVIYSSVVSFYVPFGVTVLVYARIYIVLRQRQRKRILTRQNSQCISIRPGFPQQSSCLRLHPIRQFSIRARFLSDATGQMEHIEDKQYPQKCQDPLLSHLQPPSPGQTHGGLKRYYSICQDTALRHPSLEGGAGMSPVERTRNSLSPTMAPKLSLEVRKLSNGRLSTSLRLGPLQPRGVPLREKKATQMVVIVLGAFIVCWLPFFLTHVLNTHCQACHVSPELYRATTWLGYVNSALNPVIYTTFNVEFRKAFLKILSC

Cc1nc2n(c(=O)c1CCN1CCC(c3noc4cc(F)ccc34)CC1)CCCC2 [3-{2-[4-(6-Fluoro-benzo[d]isoxazol-3-yl)-piperidin-1-yl]-ethyl}-2-methyl-6,7,8,9-tetrahydro-pyrido[1,2-a]pyrimidin-4-one(risperidone)]
Ki [1]: 4000 nM

Cc1nc2n(c(=O)c1CCN1CCC(c3noc4cc(F)ccc34)CC1)CCCC2O (stereo not given) [9-OH-risperidone]
Ki [2]: 0.22 nM
Ki [3]: 23 nM
Ki [4]: 3.5 nM and 3.9 nM and 6.7 nM and 4.6 nM
Ki [5]: > 10000 nM
Ki [6]: 117 nM
Ki [1]: 3500 nM
Ki [7]: 13 nM
Ki [8]: 47 nM
Ki [9]: 510 nM
